Patent US11931365B2, “Use of PPAR-delta agonists in the treatment of disease” (Reneo Pharmaceuticals, Inc., priority 2022, dated 2024)
Like-named read-outs stand apart in the source and are kept apart here.

Experiments:
[1] = tested on: healthy male volunteers, leg immobilization; assay: Phase 1 placebo-controlled study in healthy volunteers with single limb immobilization; assay type: in vivo, human; design: Change from baseline in muscle strength, mean: unit not given beside the values
Experimental: In a prior clinical trial in healthy volunteers, Compound I was administered at dose of 100 mg twice daily for 28 days in healthy volunteers during and after a single limb immobilization (see NCT01524406). The study was conducted to evaluate the impact of Compound I on the recovery of muscle atrophy from leg immobilization, and improvements in cross section area (CSA) and muscle strength parameters expected in patients treated with study drug compared to those given placebo.
This phase 1, randomized, parallel group, placebo-controlled study was conducted at 2 centers in the United States. Fifty participants were planned for enrollment, 25 per group; participants could be replaced upon sponsor approval.
Screening was conducted 28 days before study start; eligibility was reviewed again at prespecified times during the study. Ambulatory, non-smoking, healthy male volunteers 30 to 55 years of age with a Body Mass Index (BMI) from 18 to 30 kg/m2 were recruited for the study. Key exclusion criteria included abnormal laboratory values at screening, a recent history of body weight fluctuations, positive urine drug screens, drug dependency or illicit drug use, professional sport participation within 30 days of screening, donation of whole blood within 90 days of dosing, and donation of plasma within 30 days of dosing. Concomitant medications within 14 days of dosing were not allowed unless approved by the sponsor. Those who had enrolled in another clinical trial within 90 days or had previously received Compound II were not allowed to participate.
Participants were randomly assigned 1:1 to receive either Compound II (100 mg BID) or matching placebo for 28 days using a computer generated randomization schedule provided by the sponsor. The principal investigator, study center staff, and participants were blinded to treatment; the protocol was amended so that sponsor personnel were not blinded. This change was made to allow investigation of observations concerning adherence to the protocol, discussed further in the pharmacodynamic results. Compound II and placebo were provided as capsules identical in appearance, taken orally with 240 ml of water prior to meals. Study drug was administered at the study site on Days 1 (PM dose), 6 (AM dose), 13 (PM dose), and 14, 15, 16, 29 (AM doses). At all other times study drug was self-administered just before breakfast and dinner. Dates and times were recorded in a diary, with compliance determined from the diaries and capsule counts. Study drug supplies were packaged according to the randomization codes by a contract research organization. Each dispensed bottle was labeled with the randomization number. Individual capsules were re-dispensed from these bottles by the study site staff, maintaining the blind. The total study duration for each subject was 42 days. Participants stayed overnight from Day 1 and Days 13 to 16.
Standardized meals, beverages and snacks were provided during the domicile periods. On Day 1, participants were leg-immobilized using a knee brace with […] on the left leg to allow driving. Walking crutches were provided to prevent weight bearing on the immobilized leg. An accelerometer was issued at screening and was used to count the number of steps per day. Participants were to walk 4000 to 6000 steps each day for the duration of the leg immobilization period, and recorded accelerometer readings each evening before bedtime. The brace was removed on Day 14, and participants resumed normal physical activity gradually from Days 16 to 29. After stopping study drug on Day 29, participants were to resume regular daily activity gradually for another 2 weeks. Consumption of prescribed medications or over the counter products was prohibited from 14 days prior to dosing and throughout the study, with the exception of the treatment of an adverse event. Participants were not to consume alcohol or caffeine containing food and beverages 3 days before each study visit and domicile periods. […]

[2] = Gravimetric Vapor Sorption (GVS); assay type: physicochemical; settings: 25° C., w/w
Experimental: Sorption isotherms were obtained using a SMS DVS Intrinsic moisture sorption analyzer, controlled by DVS Intrinsic Control software. The sample temperature was maintained at 25° C. by the instrument controls. The humidity was controlled by mixing streams of dry and wet nitrogen, with a total flow rate of 200 ml/min. The relative humidity was measured by a calibrated Rotronic probe (dynamic range of 1.0-100% RH), located near the sample. The weight change, (mass relaxation) of the sample as a function of % RH was constantly monitored by a microbalance (accuracy ±0.005 mg).
Typically, 5-30 mg of sample was placed in a tared mesh stainless steel basket under ambient conditions. The sample was loaded and unloaded at 40% RH and 25° C. (typical room conditions). A moisture sorption isotherm was performed as outlined below (2 scans per complete cycle). The standard isotherm was performed at 25° C. at 10% RH intervals over a 0-90% RH range. Typically, a double cycle (4 scans) was carried out. Data analysis was carried out within Microsoft Excel using the DVS Analysis Suite.

[3] = XRPD re-analysis after GVS isotherm; assay type: physicochemical; settings: after isotherm at 90% RH and 25° C.
Experimental: The samples were recovered after completion of the isotherm experiment at 90% RH and 25° C. and re-analyzed by XRPD.

[4] = Stability of solid state forms (storage, drying), XRPD; assay type: physicochemical; settings: for XRPD after static storage: 40° C./75% RH for 10 days; for XRPD after ambient storage: 24 hours, 48 hours, 7 days, or 10 days
Experimental: Samples were assessed for stability under ambient or static storage conditions of 25° C./[…] and 40° C./75% RH for 7 or 10 days. The samples were then re-analyzed by XRPD. Subsequent XRPD analysis results for the crystalline forms are described below: […]

[5] = tested on: VLCAD deficient cell line FB833; settings: FB833 cells; WO18093839; cited from earlier work
[6] = tested on: mice; settings: cited from earlier work; for oxidative muscle fibers (and mitochondrial biogenesis) / physical performance / running endurance: combined with exercise
[7] = listed as crystalline Form 2 of Compound II
[8] = listed as crystalline Form 3 of Compound II
[9] = listed as crystalline Pattern 9 of Compound II
[10] = listed as amorphous Compound II

SMILES: Cc1cc(OC/C=C(/c2ccc(F)cc2)c2ccc(C#CCN3CCOCC3)cc2)ccc1OCC(=O)[O-].[Na+] [Compound II, sodium (E)-2-(4-((3-(4-fluorophenyl)-3-(4-(3-morpholinoprop-1-yn-1-yl)phenyl)allyl)oxy)-2-methylphenoxy)acetate]
- participants discontinued due to an adverse event of elevated CK ([1]; 100 mg BID): 8.3%
- Change from baseline in muscle strength, mean ([1]; Day 14, 100 mg BID): −5.86
- Change from baseline in muscle strength, mean ([1]; Day 21, 100 mg BID): 32.82
- Change from baseline in muscle strength, mean ([1]; Day 29, 100 mg BID): 25.58
- Change from baseline in muscle strength, mean ([1]; Day 42, 100 mg BID): 37.96
- increase from baseline in PDK4, ANGPTL4 and SLC25A34 expression ([1]; muscle biopsies, from Day 14): up to 3.5 fold

SMILES: Cc1cc(OC/C=C(/c2ccc(F)cc2)c2ccc(C#CCN3CCOCC3)cc2)ccc1OCC(=O)[O-].[Na+] [Form 2, sodium (E)-2-(4-((3-(4-fluorophenyl)-3-(4-(3-morpholinoprop-1-yn-1-yl)phenyl)allyl)oxy)-2-methylphenoxy)acetate]
- Reversible Water Uptake between 0-90% RH [2]: ~25%
- Reversible Water Uptake between 0-90% RH [2, 7]: ~25%
- Solid State Form After GVS (XRPD) [3]: Unchanged (Form 2)
- Solid State Form After GVS (XRPD) [3, 7]: unchanged
- XRPD form after storage ([4]; 25° C./97% RH/7 days): Unchanged (Form 2)
- XRPD form after storage ([4]; 25° C./97% RH/7 days, listed as crystalline Form 2 of Compound II): unchanged
- XRPD form after storage ([4]; 40° C./75% RH/7 days): Unchanged (Form 2)
- XRPD form after storage ([4]; 40° C./75% RH/7 days, listed as crystalline Form 2 of Compound II): unchanged

SMILES: Cc1cc(OC/C=C(/c2ccc(F)cc2)c2ccc(C#CCN3CCOCC3)cc2)ccc1OCC(=O)[O-].[Na+] [Form 3, sodium (E)-2-(4-((3-(4-fluorophenyl)-3-(4-(3-morpholinoprop-1-yn-1-yl)phenyl)allyl)oxy)-2-methylphenoxy)acetate]
- Reversible Water Uptake between 0-90% RH [2]: ~9.0%
- Reversible Water Uptake between 0-90% RH [2, 8]: ~9.0%
- Solid State Form After GVS (XRPD) [3]: Form 1
- Solid State Form After GVS (XRPD) [3, 8]: converts to Form 1
- XRPD form after storage ([4]; 40° C./75% RH/7 days): Form 1
- XRPD form after storage ([4]; 40° C./75% RH/7 days, listed as crystalline Form 3 of Compound II): converts to Form 1
- form change on drying [4]: converts to Form 1
- form change on standing ([4]; standing in ambient conditions): converts to Form 1

SMILES: Cc1cc(OC/C=C(/c2ccc(F)cc2)c2ccc(C#CCN3CCOCC3)cc2)ccc1OCC(=O)[O-].[Na+] [Form 5, sodium (E)-2-(4-((3-(4-fluorophenyl)-3-(4-(3-morpholinoprop-1-yn-1-yl)phenyl)allyl)oxy)-2-methylphenoxy)acetate]
- Reversible Water Uptake between 0-90% RH [2]: ~11%
- Solid State Form After GVS (XRPD) [3]: Form 1
- Solid State Form After GVS (XRPD) ([3]; listed as crystalline Form 5 of Compound II): converts to Form 1
- form change on drying [4]: converts to Form 1

SMILES: Cc1cc(SCc2sc(-c3ccc(C(F)(F)F)c(F)c3)nc2C)ccc1OCC(=O)O [GW0742, [4-[[[2-[3-Fluoro-4-(trifluoromethyl)phenyl]-4-methyl-5-thiazolyl]methyl]thio]-2-methylphenoxy]acetic acid]
- VLCAD enzyme activity [5]: increase

SMILES: Cc1cc(SCc2sc(-c3ccc(C(F)(F)F)cc3)nc2C)ccc1OCC(=O)O [GW501516, 2-[2-Methyl-4-[[[4-methyl-2-[4-(trifluoromethyl)phenyl]-5-thiazolyl]methyl]thio]phenoxy]acetic acid]
- VLCAD enzyme activity [5]: increase
- energy substrate usage ([6]; 8 weeks): clear shift in energy substrate usage from glucose to fatty acid oxidation
- oxidative muscle fibers (and mitochondrial biogenesis) ([6]; listed as GW1516): synergistically induced
- physical performance / running endurance ([6]; listed as GW1516): enhanced
- oxidative muscle fibers (and mitochondrial biogenesis) [6]: increase
- physical performance / running endurance [6]: enhance

SMILES: CCCc1c(OCCCOc2ccc(OCC(=O)O)cc2)ccc(C(C)=O)c1O [L-165,0411, [4-[3-(4-Acetyl-3-hydroxy-2-propylphenoxy)propoxy]phenoxy]acetic acid]
- VLCAD enzyme activity [5]: increase

SMILES: Cc1cc(OC/C=C(/c2ccc(F)cc2)c2ccc(C#CCN3CCOCC3)cc2)ccc1OCC(=O)[O-].[Na+] [Pattern 5, sodium (E)-2-(4-((3-(4-fluorophenyl)-3-(4-(3-morpholinoprop-1-yn-1-yl)phenyl)allyl)oxy)-2-methylphenoxy)acetate]
- stability of the solid form [4]: unstable

SMILES: Cc1cc(OC/C=C(/c2ccc(F)cc2)c2ccc(C#CCN3CCOCC3)cc2)ccc1OCC(=O)[O-].[Na+] [Pattern 8, sodium (E)-2-(4-((3-(4-fluorophenyl)-3-(4-(3-morpholinoprop-1-yn-1-yl)phenyl)allyl)oxy)-2-methylphenoxy)acetate]
- form change on drying [4]: converts to Form 1

SMILES: Cc1cc(OC/C=C(/c2ccc(F)cc2)c2ccc(C#CCN3CCOCC3)cc2)ccc1OCC(=O)[O-].[Na+] [Pattern 9, sodium (E)-2-(4-((3-(4-fluorophenyl)-3-(4-(3-morpholinoprop-1-yn-1-yl)phenyl)allyl)oxy)-2-methylphenoxy)acetate]
- Reversible Water Uptake between 0-90% RH [2]: ~27%
- Reversible Water Uptake between 0-90% RH [2, 9]: ~27%
- Solid State Form After GVS (XRPD) [3]: Unchanged (Pattern 9)
- Solid State Form After GVS (XRPD) [3, 9]: unchanged

SMILES: Cc1cc(OC/C=C(/c2ccc(F)cc2)c2ccc(C#CCN3CCOCC3)cc2)ccc1OCC(=O)[O-].[Na+] [amorphous, sodium (E)-2-(4-((3-(4-fluorophenyl)-3-(4-(3-morpholinoprop-1-yn-1-yl)phenyl)allyl)oxy)-2-methylphenoxy)acetate]
- XRPD after static storage [4, 10]: unchanged
- XRPD after static storage ([4]; listed as amorphous solid form): no change
- XRPD after ambient storage [4, 10]: unchanged
- XRPD after ambient storage ([4]; listed as amorphous solid form): no change
